Assay results published in patent publication US11767298B2, “Substituted benzimidazoles as inhibitors of transforming growth factor-β kinase” (Duke University, priority 2016, dated 2023).

Experiments:
P. berghei = assay: Liver stage parasite load, luciferase-expressing P. berghei in HepG2 cells; type: cell-based, Plasmodium berghei ANKA; details: HepG2 host cells
Method: Cell-based anti-Plasmodium assays. For liver stage assays, 15,000 HepG2 or 8,000 Huh7 cells/well were added to 384-well microtiter plates using a multichannel pipette (Rainin). After 2 hours at 37° C., compounds (0-100 μM) were added to cells in duplicate or triplicate in a final concentration of 1% DMSO. DMSO was used as the negative control. Following compound incubation at 37° C. for ˜1 hr, harvested luciferase-expressing P. berghei ANKA sporozoites were added to the plates at a density of 3,000 sporozoites/well. P. berghei ANKA sporozoites were obtained from harvesting the salivary glands of infected A. stephensi mosquitoes. The plates were spun for 10 min at 1,000 rpm, and then incubated at 37° C. for ˜45 hrs. […] After ˜45 hours at 37° C., liver cell viability was assessed using CellTiter-Fluor (Promega) and then parasite load was determined using Bright-Glo (Promega). The relative fluorescence and luminescence signal intensity of each well was evaluated with an EnVision System. The luminescence signal in the presence of compounds was normalized to the negative control (DMSO). Dose-response analysis was performed with GraphPad Prism to yield the reported EC50 values.
Anti-Plasmodium activity was evaluated in the parasite's liver stage using a previously reported high-throughput assay. In this assay, luciferase-expressing P. berghei (murine) parasites are used to infect human hepatoma cells (HepG2) and parasite load is assessed with a luminometer subsequent to evaluating HepG2 viability using a commercially available quantification kit that measures intracellular protease activity.
Specifically, their ability to inhibit P. berghei infection in two human hepatoma cell lines (HepG2 and Huh7) as well as cytotoxicity against HepG2 and Huh7 cells was determined as described above. Liver cell cytotoxicity was evaluated with two different commercially available assays, one that tests for intracellular protease activity with a fluorescence reporter and another that relies on the luminescent detection of total ATP.

panel of 140 kinases = assay: Kinase selectivity profiling, 33P-ATP filter-binding assay (Dundee); type: biochemical; details: of the 140 kinases, 10 μM
Method: (§1) Kinase selectivity profiling. The selectivity profile of HS-206 to inhibit mammalian kinases was tested against a panel of 140 kinases at a single concentration of 10 μM. Tests were performed using a radiolabeld (^33P-ATP) filter-binding assay at the International Centre for Kinase Profiling at the University of Dundee, UK (http://www.kinase-screen.mrc.ac.uk/).
(§2) This panel contains members of all major kinase families, including tyrosine kinases (TK), tyrosine kinase-like (TKL), sterile serine/threonine (STE), and CDK/MAPK/GSK/CLK (CMGC). […] For these kinases, IC50 values were determined (Table 1).

P. berghei EEFs = assay: Immunofluorescence analysis of P. berghei EEFs in Huh7 cells; type: cell-based
Method: Immunofluorescence analysis of EEFs. For immunofluorescence analysis of EEFs, Huh7 cells were fixed with 4% paraformaldehyde for 10 min at room temperature (RT), washed thrice with PBS, permeabilized with cooled methanol for 10 min at −20° C. and blocked with 3% BSA in PBS for 30 min at RT. Thereafter, cells were incubated with a primary antibody, mouse anti-PbHSP70 (clone 2E6 1:1000) diluted in blocking buffer overnight at 4° C. Following incubation, samples were washed with PBS and incubated for 1 hr at RT with a secondary antibody, goat anti-mouse AlexaFluor 488 (1:400, Life Technologies). Finally, nuclei were stained with DAPI for 15 min at RT. For evaluation of fluorescence intensity from EEFs after infection with GFP-expressing P. berghei sporozoites, DAPI nucleus staining was performed following cell fixation. After five washes with PBS, ˜40 μl PBS was left in wells and images were acquired on a Zeiss Axio Observer widefield fluorescence microscope.
To further investigate the effect of compound 1 during malaria's liver stage, immunofluorescence assays were performed. Infected Huh7 cells were treated with 10 μM or 30 μM compound 1 for various period of time ranging from 0-24 h post-infection (hpi), 24-48 hpi and 0-48 hpi, and subsequently labeled with P. berghei HSP70 antibodies at 48 hpi. […] EEF size as compared to DMSO treated cells at all time periods tested (One-way ANOVA P<0.0001). The number of P.b. EEFs was not affected by 10 μM compound 1 as compared to DMSO treatment (FIG. 4B; One-way ANOVA P=0.0804). Similarly, treatment of infected cells with 30 μM compound 1 led to increased P.b. EEF size when added either for 0-24 hpi or 24-48 hpi. (FIGS. 4C and 4E; One-way ANOVA P<0.0001). […] Moreover, total fluorescence signal from GFP-expressing P.b. EEFs decreased with compound 1 when added for a period of 48 h post-infection. […] EEF size was increased by 10 μM compound 1 as compared to DMSO treated cells.

IRAK4 = IRAK4 (Homo sapiens, UniProt Q9NWZ3); assay: Kinase profiling (Dundee), IRAK4; type: biochemical
Method: as §1, §2

Chain of IRAK4 (Q9NWZ3 whole entry): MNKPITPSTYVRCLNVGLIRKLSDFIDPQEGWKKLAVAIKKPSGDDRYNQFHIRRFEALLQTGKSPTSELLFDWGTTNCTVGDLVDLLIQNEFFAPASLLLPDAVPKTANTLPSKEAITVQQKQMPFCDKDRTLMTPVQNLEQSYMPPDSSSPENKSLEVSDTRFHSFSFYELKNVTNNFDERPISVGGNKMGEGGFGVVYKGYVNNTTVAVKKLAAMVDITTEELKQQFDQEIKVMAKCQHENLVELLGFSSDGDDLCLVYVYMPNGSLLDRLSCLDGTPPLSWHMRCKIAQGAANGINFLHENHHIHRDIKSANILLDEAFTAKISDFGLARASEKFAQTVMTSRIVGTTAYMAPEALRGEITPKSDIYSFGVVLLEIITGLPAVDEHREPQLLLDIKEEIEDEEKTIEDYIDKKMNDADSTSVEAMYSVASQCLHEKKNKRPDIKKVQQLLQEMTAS

CCCn1c(NC(=O)c2cccc(C(N)=O)c2)nc2ccccc21 [HS-206 (1), (E)-N-(1-Propyl-1,3-dihydro-2H-benzo[d]imidazol-2-ylidene)isophthalamide]
IC50 (P. berghei; Plasmodium berghei, HepG2, parasite load): ~7 µM
IC50 (P. berghei; parasite load): 6.6 µM
number of kinases with ≥80% inhibition (panel of 140 kinases): 11
P.b. EEF size (P. berghei EEFs; 10 μM, 0-24, 24-48 and 0-48 hpi, Huh7): significantly increased
number of P.b. EEFs (P. berghei EEFs; 10 μM, Huh7): not affected
number of P.b. EEFs (P. berghei EEFs; 30 μM, added 0-24 hpi or 0-48 hpi): decreased
P.b. EEF size (P. berghei EEFs; 30 μM, added 0-24 hpi or 24-48 hpi, Huh7): increased
number of P.b. EEFs (P. berghei EEFs; 30 μM, treatment from 24-48 hpi): did not significantly decreased
total fluorescence signal from GFP-expressing P.b. EEFs (P. berghei EEFs; 10 and 30 μM, 48 h post-infection): decreased
IC50 (IRAK4): 0.12 ± 0.03 µM
inhibition at 10 µM (IRAK4; 10 μM): > 90%
